This experiment has as its system Myd88. As to the kind of experiment: Mice study #1: Myd88 immunohistochemistry of gingival tissue. The conditions noted are these: BALB/c. The class given is in vivo. On the procedure: Mice study #1: Pilot study to establish DIGO disease model. Sterile sutures (5-0 Silk thread, Ethicon, Johnson & Johnson, Somerville, NJ) were placed around the lower central incisors on both sides in BALB/c (Male) mice anaesthetized conditions using Ketamine (90-100 mg/kg bodyweight) and Xylazine (5-10 mg/kg body weight) using a 0.1 cc syringe with a 25-gauge needle intraperitoneally (FIG. 37). Mice were checked daily for intact suture placement and replaced when necessary. […] The controls were injected with the vehicle used to dissolve the drug, which was 10% ethanol and 10% polyethylene glycol castor oil (both Sigma-Aldrich, St. Louis MO) in distilled water. For preventive treatments, Folic acid was supplemented in the drinking water (10 μg/ml) ad libitum and methylcellulose gel with the Folic acid (100 μg/ml) microspheres was applied daily on the anterior gingiva. The three groups in this study were: • 1. Control group (n=1): no interventions were performed • 2. […] Treatments were continued for 28 days and digital images were captured over the time course.
Histopathology and Immunohistochemistry. […]
Immunohistochemical analysis. […] Then, we examined the histopathological images of the mice model type BALB/c and we assessed the expressions of the Myd88 in the disease group in comparison to the negative control and Folic acid treated group. […]

For the compound `Nc1nc2ncc(CNc3ccc(C(=O)N[C@@H](CCC(=O)O)C(=O)O)cc3)nc2c(=O)[nH]1` [folic acid], the “Myd88 expression in the epithelium, disease group relative to folic acid prevention group” value is “significantly higher compared to the prevention and control groups”.

(Values after patent publication US20260000496A1, “MATERIALS AND METHODS FOR DRUG-INDUCED GINGIVAL OVERGROWTH” (Optimed Technology, Inc., priority 2019, published 2026).)
